Laboratory results published in patent US20070275962A1, “Heterobicyclic Compounds as Pharmaceutically Active Agents” (GPC BIOTECH AG, priority 2003, published 2007).
Where a name gives a salt, the structure may show the parent alone.

Legend:
SRPK1 GST = target: T1, SRPK1 GST (Homo sapiens, UniProt Q96SB4); assay: General kinase assay: SRPK1; assay type: biochemical; details: concentration 10 μM; read-out: Inhibitory effect on Target SRPK1 GST
T1 construct: GST
Experimental: (§1) General Assay Protocol for all Kinases [[[…]]] [[[…]]] Reaction Buffer: Final Assay Concentrations: [[[…]]] Pipetting Sequence: • 1) Add 8 μl 50 μM MBP in Reaction Buffer to each well of Assay Plate • 2) Add 10 μl 500 mM EDTA in H2O to C- wells • 3) Add 8 μl 62.5 μCi/ml Adenosine 5'-[γ-^33P]triphosphate+5 μM ATP in Reaction Buffer to each well • 4) Add 8 μl 5 fold concentrated inhibitor in 5% DMSO in Reaction Buffer to each well except to C- and C+ wells • 5) Add 8 μl 5% DMSO in Reaction Buffer to C- and C+ wells • 6) Add 8 μl 5 fold concentrated kinase in Reaction Buffer to each well • 7) Incubate 1 hr at room temperature • 8) Add 10 μl 50 mM EDTA in H2O to each well except to C- wells • 9) Prepare MAPH plates by adding 200 μl 0.75% H3PO4 to each well • 10) Exhaust 0.75% H3PO4 using Millipore vacuum station • 11) Add 60 μl 0.75% H3PO4 to each well of MAPH Filter Plate • 12) Transfer 30 μl sample per well from Assay Plate to corresponding well of MAPH Filter Plate • 13) Incubate 30 min at room temperature • 14) Wash each well of MAPH Filter Plates 3× with 200 μl 0.75% H3PO4 using Millipore vacuum station • 15) Add 20 μl Szintilation Liquid to each well of MAPH Filter Plate • 16) Seal MAPH Filter Plate • 17) Store MAPH Filter Plate 30 min in darkness • 18) Quantify radioactivity

CDK2/CycA = CDK2/CycA (Homo sapiens, UniProt P24941); assay: General kinase assay: CDK2/CycA; assay type: biochemical; details: concentration 10 μM; read-out: Inhibitory effect on Target CDK2/CycA
Experimental: as §1

RICK-STREP 1 = target: T2, RICK-STREP 1 (Homo sapiens, UniProt O43353); assay: General kinase assay: RICK; assay type: biochemical; details: concentration 10 μM; read-out: Inhibitory effect on Target RICK-STREP 1
T2 construct: Strep
Experimental: as §1

EGFR GST-HIS = target: T3, EGFR GST-HIS (Homo sapiens, UniProt P00533); assay: General kinase assay: EGFR; assay type: biochemical; details: concentration 10 μM; read-out: Inhibitory effect on Target EGFR GST-HIS
T3 construct: GST; His
Experimental: as §1

PDGFRbeta GST = target: T4, PDGFRbeta GST (Homo sapiens, UniProt P09619); assay: General kinase assay: PDGFRbeta; assay type: biochemical; details: concentration 10 μM; read-out: Inhibitory effect on Target PDGFRbeta GST
T4 construct: GST
Experimental: as §1

c-Src HIS = target: T5, c-Src HIS (Homo sapiens, UniProt P12931); assay: General kinase assay: c-Src; assay type: biochemical; details: concentration 10 μM; read-out: Inhibitory effect on Target c-Src HIS
T5 construct: His
Experimental: as §1

CK1-alpha GST = target: T6, CK1-alpha GST (Homo sapiens, UniProt P48729); assay: General kinase assay: CK1-alpha; assay type: biochemical; details: concentration 10 μM; read-out: Inhibitory effect on Target CK1-alpha GST
T6 construct: GST
Experimental: as §1

GSK-3beta HIS = target: T7, GSK-3beta HIS (Homo sapiens, UniProt P49841); assay: General kinase assay: GSK-3beta; assay type: biochemical; details: concentration 10 μM; read-out: Inhibitory effect on Target GSK-3beta HIS
T7 construct: His
Experimental: as §1

p70S6K HIS = assay: General kinase assay: p70S6K; assay type: biochemical; details: concentration 10 μM
Experimental: as §1

ROCK2 human HIS = target: T8, ROCK2 human HIS (Homo sapiens, UniProt O75116); assay: General kinase assay: ROCK2; assay type: biochemical; details: concentration 10 μM; read-out: Inhibitory effect on Target ROCK2 human HIS
T8 construct: His
Experimental: as §1

RSK1 act. HIS = target: T9, RSK1 act. HIS (Homo sapiens, UniProt Q15418); assay: General kinase assay: RSK1; assay type: biochemical; details: concentration 10 μM; read-out: Inhibitory effect on Target RSK1 act. HIS
T9 construct: His
Experimental: as §1

Jnk1a1 HIS = target: T10, Jnk1a1 HIS (Homo sapiens, UniProt P45983); assay: General kinase assay: Jnk1a1; assay type: biochemical; details: concentration 10 μM; read-out: Inhibitory effect on Target Jnk1a1 HIS
T10 construct: His
Experimental: as §1

Kit human GST = target: T11, Kit human GST (Homo sapiens, UniProt P10721); assay: General kinase assay: Kit; assay type: biochemical; details: concentration 10 μM; read-out: Inhibitory effect on Target Kit human GST
T11 construct: GST
Experimental: as §1

cMet GST-HIS = target: T12, cMet GST-HIS (Homo sapiens, UniProt P08581); assay: General kinase assay: cMet; assay type: biochemical; details: concentration 10 μM; read-out: Inhibitory effect on Target cMet GST-HIS
T12 construct: GST; His
Experimental: as §1

[1] = target: T13, mycobacterial protein kinase G (PknG) (Mycobacterium tuberculosis, UniProt P9WI73); assay: biochemical; details: read-out: Inhibition of PknG (IC50, [μM])
T13 construct: GST; made in house; host or cells: E. coli BL21

IKKbeta HIS = target: T14, IKKbeta HIS (Homo sapiens, UniProt O14920); assay: General kinase assay: IKKbeta; assay type: biochemical; details: concentration 10 μM; read-out: Inhibitory effect on Target IKKbeta HIS
T14 construct: His
T14 sequence (O14920 1-756): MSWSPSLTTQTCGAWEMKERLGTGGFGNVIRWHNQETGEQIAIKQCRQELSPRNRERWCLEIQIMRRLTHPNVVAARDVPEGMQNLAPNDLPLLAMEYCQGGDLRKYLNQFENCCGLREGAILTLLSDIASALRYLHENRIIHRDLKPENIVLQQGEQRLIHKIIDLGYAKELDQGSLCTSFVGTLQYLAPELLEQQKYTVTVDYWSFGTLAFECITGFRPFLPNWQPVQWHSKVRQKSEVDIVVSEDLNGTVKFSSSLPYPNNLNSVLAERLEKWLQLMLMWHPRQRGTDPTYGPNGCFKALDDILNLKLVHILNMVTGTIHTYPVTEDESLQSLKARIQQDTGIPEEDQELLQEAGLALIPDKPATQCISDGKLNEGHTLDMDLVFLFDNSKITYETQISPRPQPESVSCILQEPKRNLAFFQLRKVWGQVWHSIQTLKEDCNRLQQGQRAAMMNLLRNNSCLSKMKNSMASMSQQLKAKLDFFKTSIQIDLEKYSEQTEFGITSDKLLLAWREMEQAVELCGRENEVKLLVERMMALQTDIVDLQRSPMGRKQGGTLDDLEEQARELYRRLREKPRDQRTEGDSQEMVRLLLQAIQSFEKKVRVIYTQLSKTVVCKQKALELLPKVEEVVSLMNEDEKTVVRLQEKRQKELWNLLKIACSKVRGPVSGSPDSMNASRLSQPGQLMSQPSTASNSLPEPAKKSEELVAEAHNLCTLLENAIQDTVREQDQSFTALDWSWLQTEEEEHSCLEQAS
Experimental: as §1

InsR GST = target: T15, InsR GST (Homo sapiens, UniProt P06213); assay: General kinase assay: InsR; assay type: biochemical; details: concentration 10 μM; read-out: Inhibitory effect on Target InsR GST
T15 construct: GST
Experimental: as §1

AKT1/PKBa act. HIS = target: T16, AKT1/PKBa act. HIS (Homo sapiens, UniProt P31749); assay: General kinase assay (MBP, 33P-ATP, filter plate): AKT1/PKBa; assay type: biochemical; details: concentration 10 μM; read-out: Inhibitory effect on Target AKT1/PKBa act. HIS
T16 construct: His
Experimental: as §1

T7 sequence (P49841 whole entry): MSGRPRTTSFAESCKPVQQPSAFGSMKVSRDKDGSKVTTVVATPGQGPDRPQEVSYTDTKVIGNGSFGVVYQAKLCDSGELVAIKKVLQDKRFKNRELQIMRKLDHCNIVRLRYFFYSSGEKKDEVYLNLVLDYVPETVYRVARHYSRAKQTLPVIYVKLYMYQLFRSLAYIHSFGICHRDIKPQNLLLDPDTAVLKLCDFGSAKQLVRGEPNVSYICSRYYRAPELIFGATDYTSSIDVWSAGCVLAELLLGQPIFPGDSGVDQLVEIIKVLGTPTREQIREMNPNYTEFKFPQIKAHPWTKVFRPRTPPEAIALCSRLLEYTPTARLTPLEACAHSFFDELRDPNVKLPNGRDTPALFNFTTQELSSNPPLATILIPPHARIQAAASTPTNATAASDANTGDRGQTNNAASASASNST
T6 sequence (P48729 whole entry): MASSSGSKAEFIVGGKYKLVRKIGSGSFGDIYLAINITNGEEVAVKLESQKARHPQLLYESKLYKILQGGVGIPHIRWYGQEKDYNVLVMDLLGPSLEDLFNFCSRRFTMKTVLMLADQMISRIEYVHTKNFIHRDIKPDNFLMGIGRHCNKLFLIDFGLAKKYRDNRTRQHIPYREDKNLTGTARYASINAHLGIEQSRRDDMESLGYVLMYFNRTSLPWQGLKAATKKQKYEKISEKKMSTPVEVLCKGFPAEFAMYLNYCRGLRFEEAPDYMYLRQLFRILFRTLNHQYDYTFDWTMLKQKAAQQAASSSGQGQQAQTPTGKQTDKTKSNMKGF
T1 sequence (Q96SB4 whole entry): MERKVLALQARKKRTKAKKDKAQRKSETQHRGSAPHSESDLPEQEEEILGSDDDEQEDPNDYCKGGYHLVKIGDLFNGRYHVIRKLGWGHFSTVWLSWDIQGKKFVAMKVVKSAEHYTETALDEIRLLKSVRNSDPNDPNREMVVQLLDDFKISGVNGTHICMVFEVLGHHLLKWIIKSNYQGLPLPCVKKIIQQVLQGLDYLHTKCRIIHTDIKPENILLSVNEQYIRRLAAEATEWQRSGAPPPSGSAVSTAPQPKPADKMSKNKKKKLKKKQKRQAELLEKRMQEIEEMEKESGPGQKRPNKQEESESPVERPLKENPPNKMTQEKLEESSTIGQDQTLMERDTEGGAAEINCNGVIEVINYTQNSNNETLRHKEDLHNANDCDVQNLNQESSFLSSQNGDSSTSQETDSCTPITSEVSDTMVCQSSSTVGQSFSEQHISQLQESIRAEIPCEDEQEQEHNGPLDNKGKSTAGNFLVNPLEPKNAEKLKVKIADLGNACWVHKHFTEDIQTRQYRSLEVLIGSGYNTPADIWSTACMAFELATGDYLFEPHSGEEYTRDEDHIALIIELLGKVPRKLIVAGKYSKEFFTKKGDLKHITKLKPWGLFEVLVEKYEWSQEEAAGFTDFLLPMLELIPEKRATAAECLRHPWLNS
T4 sequence (P09619 33-1106): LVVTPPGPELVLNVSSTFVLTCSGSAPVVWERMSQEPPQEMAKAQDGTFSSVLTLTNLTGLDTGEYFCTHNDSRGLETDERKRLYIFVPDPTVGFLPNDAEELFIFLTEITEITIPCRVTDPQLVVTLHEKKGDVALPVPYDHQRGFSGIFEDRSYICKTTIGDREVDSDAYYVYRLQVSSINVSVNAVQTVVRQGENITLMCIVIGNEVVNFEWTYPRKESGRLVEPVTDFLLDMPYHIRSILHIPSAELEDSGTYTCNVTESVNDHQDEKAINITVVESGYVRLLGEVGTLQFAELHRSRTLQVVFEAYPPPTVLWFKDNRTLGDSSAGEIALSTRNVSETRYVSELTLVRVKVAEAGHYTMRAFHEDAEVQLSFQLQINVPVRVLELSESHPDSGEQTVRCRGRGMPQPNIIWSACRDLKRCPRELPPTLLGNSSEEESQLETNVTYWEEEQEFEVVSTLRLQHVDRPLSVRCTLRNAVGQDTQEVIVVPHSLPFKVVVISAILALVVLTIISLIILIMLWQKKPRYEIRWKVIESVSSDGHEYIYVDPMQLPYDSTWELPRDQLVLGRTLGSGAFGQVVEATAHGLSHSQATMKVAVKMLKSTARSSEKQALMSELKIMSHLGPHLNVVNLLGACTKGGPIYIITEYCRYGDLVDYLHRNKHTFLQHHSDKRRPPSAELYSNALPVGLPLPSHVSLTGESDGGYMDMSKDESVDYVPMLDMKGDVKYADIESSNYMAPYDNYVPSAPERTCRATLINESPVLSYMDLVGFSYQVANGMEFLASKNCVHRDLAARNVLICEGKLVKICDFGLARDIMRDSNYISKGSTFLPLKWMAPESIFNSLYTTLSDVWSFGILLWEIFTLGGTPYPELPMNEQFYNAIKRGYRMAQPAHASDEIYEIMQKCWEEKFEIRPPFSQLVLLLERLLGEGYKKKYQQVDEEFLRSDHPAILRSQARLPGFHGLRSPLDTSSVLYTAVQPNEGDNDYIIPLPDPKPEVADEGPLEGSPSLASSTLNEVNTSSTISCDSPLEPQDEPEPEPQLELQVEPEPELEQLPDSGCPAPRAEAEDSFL
T3 sequence (P00533 25-1210): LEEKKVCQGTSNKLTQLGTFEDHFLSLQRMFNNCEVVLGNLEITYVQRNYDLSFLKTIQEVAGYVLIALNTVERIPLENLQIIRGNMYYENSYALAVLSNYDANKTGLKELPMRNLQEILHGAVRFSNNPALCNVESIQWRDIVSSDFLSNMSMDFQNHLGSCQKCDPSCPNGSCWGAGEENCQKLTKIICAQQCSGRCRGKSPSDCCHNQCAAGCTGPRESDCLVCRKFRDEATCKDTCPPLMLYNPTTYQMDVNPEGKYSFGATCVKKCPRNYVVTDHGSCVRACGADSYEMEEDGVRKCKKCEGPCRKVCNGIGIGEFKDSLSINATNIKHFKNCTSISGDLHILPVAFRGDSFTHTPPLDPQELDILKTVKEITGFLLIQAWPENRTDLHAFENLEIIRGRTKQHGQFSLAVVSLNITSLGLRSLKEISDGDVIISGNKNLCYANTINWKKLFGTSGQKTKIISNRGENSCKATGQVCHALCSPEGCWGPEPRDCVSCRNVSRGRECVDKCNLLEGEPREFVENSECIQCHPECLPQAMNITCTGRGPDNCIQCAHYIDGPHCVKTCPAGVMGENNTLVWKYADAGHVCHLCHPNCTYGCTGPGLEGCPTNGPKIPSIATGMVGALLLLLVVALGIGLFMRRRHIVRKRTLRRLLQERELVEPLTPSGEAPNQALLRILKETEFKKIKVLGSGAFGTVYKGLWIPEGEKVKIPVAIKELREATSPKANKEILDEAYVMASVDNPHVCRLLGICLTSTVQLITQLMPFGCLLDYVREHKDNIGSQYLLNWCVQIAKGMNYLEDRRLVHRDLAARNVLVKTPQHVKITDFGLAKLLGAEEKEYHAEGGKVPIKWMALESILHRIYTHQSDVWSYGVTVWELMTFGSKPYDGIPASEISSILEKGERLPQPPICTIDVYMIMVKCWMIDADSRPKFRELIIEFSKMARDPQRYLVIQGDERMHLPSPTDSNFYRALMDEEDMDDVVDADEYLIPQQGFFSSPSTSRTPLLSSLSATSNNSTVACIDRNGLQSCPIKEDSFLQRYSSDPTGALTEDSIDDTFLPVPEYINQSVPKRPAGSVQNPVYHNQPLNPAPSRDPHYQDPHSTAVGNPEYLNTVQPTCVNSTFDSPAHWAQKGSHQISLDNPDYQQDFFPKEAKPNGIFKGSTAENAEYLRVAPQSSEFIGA
T11 sequence (P10721 26-976): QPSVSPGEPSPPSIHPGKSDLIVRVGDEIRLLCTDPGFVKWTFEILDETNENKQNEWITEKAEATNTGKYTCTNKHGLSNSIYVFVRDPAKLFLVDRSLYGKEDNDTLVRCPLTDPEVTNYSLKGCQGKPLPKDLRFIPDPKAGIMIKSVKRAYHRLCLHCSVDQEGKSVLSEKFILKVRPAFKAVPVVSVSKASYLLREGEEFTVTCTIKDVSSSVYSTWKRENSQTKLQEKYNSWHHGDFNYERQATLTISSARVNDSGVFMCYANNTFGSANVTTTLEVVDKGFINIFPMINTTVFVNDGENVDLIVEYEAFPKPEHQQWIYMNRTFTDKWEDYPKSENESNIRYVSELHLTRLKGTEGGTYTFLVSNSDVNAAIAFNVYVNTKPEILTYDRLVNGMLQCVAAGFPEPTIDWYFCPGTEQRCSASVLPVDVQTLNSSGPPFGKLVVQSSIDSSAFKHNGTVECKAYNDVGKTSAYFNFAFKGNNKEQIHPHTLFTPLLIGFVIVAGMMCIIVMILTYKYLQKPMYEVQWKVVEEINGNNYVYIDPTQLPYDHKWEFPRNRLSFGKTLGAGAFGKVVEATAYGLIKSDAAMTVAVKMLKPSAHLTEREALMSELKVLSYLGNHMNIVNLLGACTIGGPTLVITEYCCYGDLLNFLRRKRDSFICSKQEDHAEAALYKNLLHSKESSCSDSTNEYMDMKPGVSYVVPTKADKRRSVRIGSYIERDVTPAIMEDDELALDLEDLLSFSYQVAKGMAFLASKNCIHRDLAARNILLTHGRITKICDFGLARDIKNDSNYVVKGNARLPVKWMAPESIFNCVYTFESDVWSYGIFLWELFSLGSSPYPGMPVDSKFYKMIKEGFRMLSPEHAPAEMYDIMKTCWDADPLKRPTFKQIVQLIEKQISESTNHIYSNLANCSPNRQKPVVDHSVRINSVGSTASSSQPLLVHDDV
T10 sequence (P45983 1-384 isoform P45983-2): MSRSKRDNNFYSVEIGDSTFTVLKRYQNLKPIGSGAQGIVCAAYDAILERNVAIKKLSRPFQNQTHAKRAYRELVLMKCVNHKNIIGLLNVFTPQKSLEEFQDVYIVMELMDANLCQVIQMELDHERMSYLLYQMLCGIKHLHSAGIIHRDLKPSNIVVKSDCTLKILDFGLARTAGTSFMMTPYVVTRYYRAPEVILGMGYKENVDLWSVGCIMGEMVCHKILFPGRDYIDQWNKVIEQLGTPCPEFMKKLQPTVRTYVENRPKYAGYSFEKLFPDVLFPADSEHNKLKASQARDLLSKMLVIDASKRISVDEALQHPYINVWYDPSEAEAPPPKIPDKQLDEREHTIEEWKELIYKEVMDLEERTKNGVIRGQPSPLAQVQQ

Compound | inhibition at 10 µM (SRPK1 GST) | inhibition at 10 µM (CDK2/CycA) | inhibition at 10 µM (RICK-STREP 1) | inhibition at 10 µM (EGFR GST-HIS) | inhibition at 10 µM (PDGFRbeta GST) | inhibition at 10 µM (CK1-alpha GST) | inhibition at 10 µM (GSK-3beta HIS) | melting point | further results
NC(=O)c1c(NC(=O)Nc2ccccc2)sc2cc(O)ccc12 [Compound A12, 6-Hydroxy-2-(3-phenyl-ureido)-benzo[b]thiophene-3-carboxylic acid amide] | > 50% | > 50% | > 50% | > 50% | > 50% | > 50% | > 50% |  | inhibition at 10 µM (c-Src HIS): > 50%; Inhibitory effect on Target p70S6K HIS (p70S6K HIS): + (+ = >50% inhibition at concentration 10 μM); inhibition at 10 µM (ROCK2 human HIS): > 50%; inhibition at 10 µM (RSK1 act. HIS): > 50%; inhibition at 10 µM (Jnk1a1 HIS): > 50%; inhibition at 10 µM (Kit human GST): > 50%
O=C(Nc1sc2c(c1S(=O)(=O)O)CCCC2)C1CC1 [Compound D216, 2-(Cyclopropanecarbonyl-amino)-4,5,6,7-tetrahydro-benzo[b]thiophene-3-sulfonic acid] |  |  |  |  |  |  |  | 225 to 230 °C (dec.) | 
NC(=O)c1c(NC(=O)C2CC2)sc2c(O)c(Br)ccc12 [Compound A15, 6-Bromo-2-(cyclopropanecarbonyl-amino)-7-hydroxy-benzo[b]thiophene-3-carboxylic acid amide] | > 50% |  | > 50% | > 50% | > 50% | > 50% | > 50% |  | inhibition at 10 µM (cMet GST-HIS): > 50%; Inhibitory effect on Target p70S6K HIS (p70S6K HIS): + (+ = >50% inhibition at concentration 10 μM); inhibition at 10 µM (Jnk1a1 HIS): > 50%
NC(=O)c1c(NC(=O)C2CC2)sc2c1CCC(Br)(Br)C2=O [Compound D67, 6,6-Dibromo-2-(cyclopropanecarbonyl-amino)-7-oxo-4,5,6,7-tetrahydro-benzo[b]thiophene-3-carboxylic acid amide] | > 50% | > 50% | > 50% | > 50% |  | > 50% | > 50% |  | IC50 [1]: 0.1 to 1 µM; inhibition at 10 µM (cMet GST-HIS): > 50%
NC(=O)c1c(NC(=O)Nc2ccc(F)cc2)sc2c1CCC(O)C2 (stereo not drawn) [Compound D142, 2-[3-(4-Fluoro-phenyl)-ureido]-6-hydroxy-4,5,6,7-tetrahydro-benzo[b]thiophene-3-carboxylic acid amide] | > 50% | > 50% | > 50% |  |  | > 50% |  |  | inhibition at 10 µM (IKKbeta HIS): > 50%; inhibition at 10 µM (c-Src HIS): > 50%
CC1CC1C(=O)Nc1sc2c(Cl)c(O)ccc2c1C(N)=O (stereo not drawn) [Compound A37, 7-Chloro-6-hydroxy-2-[(2-methyl-cyclopropanecarbonyl)-amino]-benzo[b]thiophene-3-carboxylic acid amide] | > 50% | > 50% | > 50% | > 50% | > 50% | > 50% | > 50% |  | inhibition at 10 µM (IKKbeta HIS): > 50%; inhibition at 10 µM (InsR GST): > 50%; Inhibitory effect on Target p70S6K HIS (p70S6K HIS): + (+ = >50% inhibition at concentration 10 μM); inhibition at 10 µM (RSK1 act. HIS): > 50%; inhibition at 10 µM (Jnk1a1 HIS): > 50%; inhibition at 10 µM (Kit human GST): > 50%; inhibition at 10 µM (AKT1/PKBa act. HIS): > 50%
NC(=O)c1c(NC(=O)Nc2ccccc2)sc2c1CCC1(C2)OCCO1 (as salt: HCl) [Compound D199, 2-[(Anilinocarbonyl)amino]-4,7-dihydro-5H-spiro[1-benzothiophene-6,2′-[1,3]dioxolane]-3-carboxamide] |  |  |  |  |  |  |  | 212 to 213 °C | 
NS(=O)(=O)c1c(NC(=O)C2CC2)sc2c1CCCC2 [Compound D86, Cyclopropanecarboxylic acid (3-sulfamoyl-4,5,6,7-tetrahydro-benzo[b]thiophen-2-yl)-amide] |  |  |  |  |  |  |  | 235 to 238 °C (dec.) | 
NC(=O)c1c(NC(=O)C2CC2)sc2c(Cl)c(OCCO)c(Cl)cc12 [Compound A49, 5,7-Dichloro-2-(cyclopropanecarbonyl-amino)-6-(2-hydroxyethoxy)-benzo[b]thiophene-3-carboxylic acid amide] |  |  |  |  |  |  |  | 250 to 254 °C | 
NC(=O)c1c(NC(=O)Nc2ccc(F)cc2)sc2c1CCC(=O)C2 [Compound D121, 2-[3-(4-Fluoro-phenyl)-ureido]-6-oxo-4,5,6,7-tetrahydro-benzo[b]thiophene-3-carboxylic acid amide] | > 50% | > 50% | > 50% | > 50% |  | > 50% | > 50% |  | inhibition at 10 µM (c-Src HIS): > 50%
NN=C1CCc2c(sc(NC(=O)C3CC3)c2C(N)=O)C1 [Compound D115, 2-(Cyclopropanecarbonyl-amino)-6-hydrazono-4,5,6,7-tetrahydro-benzo[b]thiophene-3-carboxylic acid amide] |  | > 50% | > 50% | > 50% | > 50% | > 50% | > 50% |  | IC50 [1]: 0.1 to 1 µM; inhibition at 10 µM (Kit human GST): > 50%
